Laboratory results as given in patent US6943151B2, “Method of inhibiting bone resorption and/or promoting bone formation using GLP-2 and related compounds” (Sanos Bioscience A/S, priority 2000, dated 2005).

How the values were obtained:
S-CTX (bone resorption) = assay: Serum C-telopeptide fragments of collagen type I degradation (S-CTX) by serum CrossLaps ELISA, marker of bone resorption, after administration to human subjects; assay type: in vivo
Procedure: In these Examples Haematology and serum chemistry including glucose were measured using an auto analyser (Vitros). Serum FSH was measured by IRMA (Coat-A-Count®, DPC, Los Angeles, Calif.). Serum C-telopeptide fragments of collagen type I degradation (S-CTX) were measured by ELISA, serum CrossLaps™ assay (Osteometer BioTech A/S—Denmark). Serum osteocalcin was determined by ELISA, an assay which determines the N-terminal mid segment of the molecule. Serum insulin and c-peptide were both assessed by RIA (Coat-A-Count® for insulin and Double Antibody C-peptide for c-peptide both DPC, Los Angeles, Calif.).
12 healthy women and men between 30-45, respectively 30-60, were included in a randomised, controlled cross over study comparing the effects of oral fructose on GLP-1, on GIP and on bone turnover. The individuals had not suffered diseases suspected to affect bone turnover such as cancer, rheumatoid arthritis or diseases compromising absorption from the gut or excretion/re-absorption from the kidney nor had they a history of serious diseases, which might influence the conduct of the study. A general laboratory screening including haematology and serum chemistry gave no indication of specific organ dysfunction. […]

GLP-1 = assay: Level of GLP-1 in blood after oral nutrient intake; assay type: in vivo, human; conditions: after 2 hours; oral 75 g fructose; healthy women and men
Source text: (§1) 12 healthy women and men between 30-45, respectively 30-60, were included in a randomised, controlled cross over study comparing the effects of oral fructose on GLP-1, on GIP and on bone turnover. The individuals had not suffered diseases suspected to affect bone turnover such as cancer, rheumatoid arthritis or diseases compromising absorption from the gut or excretion/re-absorption from the kidney nor had they a history of serious diseases, which might influence the conduct of the study. A general laboratory screening including haematology and serum chemistry gave no indication of specific organ dysfunction. The individuals were not under influence of bone active medication, thus more than 3 months had passed since previous treatment with calcium, vitamin D, oestrogen or progestin in any administration form and the individuals had never been treated with bisphosphonates or fluoride.
After fasting from 10 p.m. the evening prior to an experiment, blood samples were collected between 7:30 a.m. and 8:30 a.m. Immediately thereafter oral fructose were initiated. […]
The normal mixed meal consisted of rye bread, toast, butter, cheese, jam, yoghurt, banana, and orange juice (total weight 755 g), with an energy content of 3.92 MJ and a protein:carbohydrate:fat energy ratio of 10%:52%:37% evaluated from food tables.

GIP = assay: Level of GIP in blood after oral nutrient intake; assay type: in vivo, human; conditions: oral 75 g fructose; healthy women and men; result in words
Source text: as §1
After fasting from 10 p.m. the evening prior to an experiment, blood samples were collected between 7:30 a.m. and 8:30 a.m. Immediately thereafter oral fructose were initiated. At precisely 1, 2, 3, 6 and 9 hours after the first blood sample, blood samples were collected. A washout period of 2 weeks was instituted between each experiment.
Oral fructose consisted of 75 g fructose dissolved in 300 ml water with juice of a half lemon added. […]

[1] = Level of GLP-2 in blood after subcutaneous GLP-2 injection; assay type: in vivo; conditions: subcutaneous bolus injection of 400 μg synthetic human GLP-2; healthy women and men
Source text: 6 healthy women and 3 healthy men between 24-53 were included in a study comparing the effect of a GLP-2 injection on GLP-2intact and on bone turnover.
The description of the methodology of measurement of GLP-2intact and total GLP-2 and the description of the test persons was as described in detail in Hartmann, B. et al., J Clin Endocrinol Metab 2000; 85 (8):2884-2888.
Blood samples were drawn at regular intervals before, during, and after the injection.
The test persons received a subcutaneous bolus injection of 400 μg synthetic human GLP-2.

O=C(CO)[C@@H](O)[C@H](O)[C@H](O)CO [fructose]
reduction in S-CTX (S-CTX (bone resorption); after 2 hours, oral intake after overnight fast, 12 healthy women and men): 36%
occurrence (level) of GLP-1 compared to the baseline of 100% at To (GLP-1): 220%
level of GIP (GIP): almost maintained at the baseline

GLP-2: synthetic human GLP-2, 33 amino acid peptide fragment of proglucagon (126-158)
reduction in S-CTX (S-CTX (bone resorption); after 3 hours, subcutaneous bolus injection of 400 μg, 6 healthy women and 3 healthy men): 33%
time to peak level of GLP-2 after the injection [1]: 1 h
